From patent publication US7989018B2, “Fluid treatment of a polymeric coating on an implantable medical device” (Advanced Cardiovascular Systems, Inc., priority 2001, dated 2011)

Legend:
[1] = Release of 40-O-(2-hydroxy)ethyl-rapamycin from a standard polymeric coating in release media; format: physicochemical; conditions: in about 24 hours, certain release media
[2] = Drug release from stent coatings, Vankel Bio-Dis release rate tester, HPLC; format: physicochemical; conditions: fluid-treated coating, Example 3
Experimental: The drug-coated stents were placed on stent holders of a Vankel Bio-Dis release rate tester (Vankel, Inc., Cary, N.C.). 3 stents from each test group were dipped into an artificial medium for about 1 hour to extract the 40-O-(2-hydroxy)ethyl-rapamycin from the stent coatings. The artificial medium included phosphate buffer saline solution (10 mM, pH 7.4) and 1% TRITON X-100 Sigma Corporation) which stabilizes the 40-O-(2-hydroxy)ethyl-rapamycin in the testing solution. Each stent was tested in a separate testing solution to prevent cross-contamination. After extraction, each of the solutions was separately analyzed for the amount of drug released from the stent coatings by high pressure liquid chromatography (HPLC). The HPLC system consisted of a Waters 2690 system. After the drug solutions were analyzed by HPLC, the results were quantified by comparing the release rate results with a reference standard.
Each of the stents was then dipped in fresh extraction solutions for another 6 hours (7 hours total). The solutions were analyzed by HPLC as described above. […] The solutions were again analyzed by HPLC as described above.
The drug release profile could then be generated by plotting cumulative drug released in the medium vs. time. The percentage of drug released at a specific time was determined by comparing the cumulative drug released with the total content data. […]

release rate from a standard polymeric coating [1]: greater than 50%
decrease of release rate as compared to a control group [2]: about 50%
Compound: CO[C@H]1C[C@@H]2CC[C@@H](C)[C@@](O)(O2)C(=O)C(=O)N2CCCC[C@H]2C(=O)O[C@H]([C@H](C)C[C@@H]2CC[C@@H](OCCO)[C@H](OC)C2)CC(=O)[C@H](C)/C=C(\C)[C@@H](O)[C@@H](OC)C(=O)[C@H](C)C[C@H](C)/C=C/C=C/C=C/1C [40-O-(2-hydroxy)ethyl-rapamycin]
